The results in this text go back to patent US9150568B2, “Compositions and methods for modulating FXR” (NOVARTIS AG, priority 2010, dated 2015).

In general, EC50 refers to the midpoint of the concentration-response curve.

One test concerns the target T1, human Farnesoid X Receptor (FXR) ligand binding domain (GST-FXR LBD) (Homo sapiens, UniProt Q96RI1).
T1 construct: purchased Invitrogen
T1 sequence (Q96RI1 193-472 isoform Q96RI1-2): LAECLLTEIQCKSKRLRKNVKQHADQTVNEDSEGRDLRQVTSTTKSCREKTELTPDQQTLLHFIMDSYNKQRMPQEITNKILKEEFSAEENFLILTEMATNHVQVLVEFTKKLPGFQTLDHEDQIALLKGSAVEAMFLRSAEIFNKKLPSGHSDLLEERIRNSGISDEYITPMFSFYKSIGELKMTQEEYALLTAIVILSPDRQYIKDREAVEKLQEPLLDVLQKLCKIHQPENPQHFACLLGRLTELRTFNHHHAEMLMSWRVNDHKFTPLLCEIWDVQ
Put plainly: Human GST-FXR LBD co-activator interaction assay (HTRF). The test is classed as biochemical.
Details: not given
The procedure, abridged: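 FRET (HTRF) read-out of ligand-induced binding between GST-FXR LBD and an SRC-1 peptide, detected with anti-GST cryptate and streptavidin-XL665 in buffer with 50 mM KF. Response % was normalized to DMSO and to the maximal GW4064 response. EC50 came from a four-parameter fit.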
For orientation: In TR-FRET formats the signal depends on donor and acceptor labels being close together.
The compound `Cc1cc(C(=O)O)cnc1N1C2CC[C@H]1C[C@H](OCc1c(-c3ccccc3OC(F)(F)F)noc1C1CC1)C2` [Example 19-4B] yielded an EC50 of 5 nM.

The test is the same for the next values; noted with them: GST-FXR LBD / biotin-SRC-1 peptide FRET; response relative to GW4064; read-out: FXR Co-activator interaction assay (EC50).
For the compound `COc1cc(C(=O)O)cc2sc(N3C4CC[C@H]3C[C@H](OCc3c(C5CC5)noc3C3CC3)C4)nc12` [Example 12-3], the EC50 is 40 nM.

For `O=C(O)c1cnc(N2C3CC[C@H]2C[C@H](OCc2c(-c4ccccc4OC(F)(F)F)noc2C2CC2)C3)c(C2CC2)c1` [Example 18-2B, 5-cyclopropyl-6-((1S,3R)-3-((5-cyclopropyl-3-(2-(trifluoromethoxy)phenyl)isoxazol-4-yl)methoxy)-8-azabicyclo[3.2.1]octan-8-yl)nicotinic acid], the EC50 turned out to be 7 nM.

Take `O=C(O)c1cccc(N2C3CC[C@H]2C[C@H](OCc2c(-c4ccccc4OC(F)(F)F)noc2C2CC2)C3)n1` [Example 19-7B]: the EC50 stood at 3 nM.

`COC(=O)c1ccc(N2C3CC[C@H]2C[C@H](OCc2c(-c4ccccc4OC(F)(F)F)noc2C2CC2)C3)nc1` [Example 18-3A]: the EC50 worked out at 8 nM.

`Fc1cc(-c2nn[nH]n2)ccc1N1C2CC[C@H]1CC(OCc1c(-c3ccccc3OC(F)F)noc1C1CC1)C2` (stereo in doubt) [Example 26B, 5-cyclopropyl-3-(2-(difluoromethoxy)phenyl)-4-(((8-(2-fluoro-4-(2H-tetrazol-5-yl)phenyl)-8-azabicyclo[3.2.1]octan-3-yl)oxy)methyl)isoxazole]: the EC50 was 0.3 nM.

Take `O=C(O)c1cnc2c(N3C4CC[C@H]3CC(OCc3c(-c5ccccc5OC(F)(F)F)noc3C3CC3)C4)cccc2c1` (stereo partly drawn) [Example 28-17]: the EC50 was 9.8 nM.

For the compound `O=C(O)c1cc(F)c(N2[C@@H]3CC[C@H]2C[C@@H](OCc2c(-c4c(F)cccc4F)noc2C2CC2)C3)c(F)c1` [Example 25-4B], the EC50 amounted to 2 nM.

As to `O=C(O)c1csc(N2C3CC[C@H]2CC(OCc2c(-c4ccccc4OC(F)(F)F)noc2C2CC2)C3)n1` (stereo partly drawn) [Example 30-74], the EC50 was determined as 3 nM.

Consider `Cc1cc(C(=O)O)cc2sc(N3C4CC[C@H]3CC(OCc3c(-c5ccccc5OC(F)(F)F)noc3C3CC3)C4)nc12` (stereo partly drawn) [Example 30-29], for which the EC50 is 0.5 nM.

For `CCOC(=O)c1ccc2nc(N3C4CC[C@H]3C[C@H](OCc3c(-c5c(F)cccc5F)noc3C3CC3)C4)sc2c1` [Example 6-5A], the EC50 came to 3.8 nM.

Regarding `COC(=O)c1ccc(N2C3CC[C@H]2CC(OCc2c(-c4ccccc4OC(F)F)noc2C2CC2)C3)c(F)c1` (stereo partly drawn) [Example 25-6A], the EC50 came to 9 nM.

In the case of `COc1cc(C(=O)O)cc2sc(N3C4CC[C@H]3C[C@H](OCc3c(C5CCCCC5C(F)(F)F)noc3C3CC3)C4)nc12` (stereo partly drawn) [Example 8-2], the EC50 is 2.4 nM.

On to `COC(=O)c1cnc(N2C3CC[C@H]2CC(OCc2c(-c4ccccc4OC(F)F)noc2C2CC2)C3)nc1` (stereo partly drawn) [Example 22-10A], for which the 50% effective concentration (EC50) worked out at 360 nM.

Turning to `COC(=O)c1cnc(N2C3CC[C@H]2C[C@H](OCc2c(-c4ccccc4OC(F)(F)F)noc2C2CC2)C3)nc1C(F)(F)F` [Example 19-2A], the EC50 is 80 nM.

For the compound `O=C(O)c1ccnc(N2C3CC[C@H]2CC(OCc2c(-c4ccccc4OC(F)F)noc2C2CC2)C3)n1` (stereo partly drawn) [Example 22-2B], the EC50 turned out to be 9 nM.

As to `COc1cc(C(=O)O)cc2sc(N3C4CC[C@H]3C[C@H](OCc3c(-c5c(F)cccc5F)noc3C3CC3)C4)nc12` [Example 6-6B], the EC50 worked out at 0.3 nM.

Turning to `COC(=O)c1ccnc(N2C3CC[C@H]2CC(OCc2c(-c4ccccc4C(F)(F)F)noc2C2CC2)C3)n1` (stereo partly drawn) [Example 21-5A], the EC50 amounted to 110 nM.

As for `O=C(O)c1cnc2ccc(N3C4CC[C@H]3CC(OCc3c(-c5ccccc5OC(F)(F)F)noc3C3CC3)C4)nn12` (stereo partly drawn) [Example 30-60], the EC50 amounted to 94 nM.

Take `O=C(O)c1cc2nc(N3C4CC[C@H]3CC(OCc3c(-c5ccccc5C(F)(F)F)noc3C3CC3)C4)ccn2n1` (stereo partly drawn) [Example 31-4]: the EC50 came out at 4 nM.

Consider `COC(=O)c1cc(F)c(N2C3CC[C@H]2CC(OCc2c(-c4ccccc4OC(F)F)noc2C2CC2)C3)c(F)c1` (stereo partly drawn) [Example 25-1A], for which the EC50 came out at 28 nM.

Turning to `C[C@@H]1C(c2noc(C3CC3)c2COC2CC3CC[C@@H](C2)N3c2nc3c(F)cc(C(=O)O)cc3s2)C[C@@H]2C[C@H]1C2(C)C` (stereo partly drawn) [Example 29-5], the EC50 came to 6 nM.

For `COC(=O)c1ccc(N2C3CC[C@H]2C[C@H](OCc2c(-c4ccccc4C(F)(F)F)noc2C2CC2)C3)nc1` [Example 18-6A], the EC50 turned out to be 50 nM.

`Cc1cc(C(=O)O)nc(N2C3CC[C@H]2CC(OCc2c(-c4ccccc4F)noc2C2CC2)C3)n1` (stereo partly drawn) [Example 30-68]: the EC50 was determined as 13 nM.

On to `O=C(O)c1cccc2nc(N3C4CC[C@H]3CC(OCc3c(-c5ccccc5OC(F)(F)F)noc3C3CC3)C4)ccc12` (stereo partly drawn) [Example 30-55], for which the EC50 was 1 nM.

For `Cn1c(C(=O)O)cc2ccc(N3C4CC[C@H]3CC(OCc3c(-c5ccccc5OC(F)(F)F)noc3C3CC3)C4)cc21` (stereo partly drawn) [Example 28-4], the EC50 was 2 nM.

For the compound `O=C(O)c1ccc2c(N3C4CC[C@H]3CC(OCc3c(-c5ccccc5OC(F)(F)F)noc3C3CC3)C4)ncnc2c1` (stereo partly drawn) [Example 30-56], the EC50 worked out at 5.7 nM.

For the compound `O=C(O)Cc1ccc(N2C3CC[C@H]2C[C@H](OCc2c(-c4ccccc4OC(F)(F)F)noc2C2CC2)C3)nc1` [Example 19-1B], the EC50 was determined as 40 nM.

For the compound `Cc1cc(C(=O)O)cc2sc(N3C4CC[C@H]3CC(OCc3c(-c5ccccc5C(F)(F)F)noc3C3CC3)C4)nc12` (stereo partly drawn) [Example 30-31], the EC50 is 7 nM.

In the case of `COc1cc(C(=O)O)cc2sc(N3C4CC[C@H]3C[C@H](OCc3c(C5CCC6(CC5)CC6)noc3C3CC3)C4)nc12` [Example 13-3B], the EC50 was found to be 0.67 nM.

For `O=C(O)c1ccc(N2[C@@H]3CC[C@H]2C[C@@H](OCc2c(-c4c(F)cccc4Cl)noc2C2CC2)C3)nc1` [Example 30-18], the EC50 amounted to 6 nM.

`O=C(O)c1cc(F)c(N2C3CC[C@H]2CC(OCc2c(-c4ccccc4OC(F)F)noc2C2CC2)C3)c(F)c1` (stereo partly drawn) [Example 25-1B]: the EC50 was determined as 3 nM.

For the compound `O=C(O)c1nsc2cc(N3[C@@H]4CC[C@H]3C[C@@H](OCc3c(-c5ccccc5C5CC5)noc3C3CC3)C4)ccc12` [Example 28-22], the EC50 stood at 0.2 nM.

For the compound `O=C(NCCS(=O)(=O)O)c1ccc(N2C3CC[C@H]2C[C@H](OCc2c(-c4ccccc4OC(F)(F)F)noc2C2CC2)C3)nc1` [Example 16-4], the concentration giving a half-maximal response (EC50) worked out at 9 nM.

With `O=C(O)c1cn2ccc(N3C4CCC3CC(OCc3c(-c5ccccc5OC(F)(F)F)noc3C3CC3)C4)cc2n1` (stereo not drawn) [Example 28-24], the EC50 worked out at 24 nM.

In the case of `Cc1cc(C(=O)O)cc(N2C3CC[C@H]2CC(OCc2c(-c4ccccc4C(F)(F)F)noc2C2CC2)C3)n1` (stereo partly drawn) [Example 21-1B], the EC50 came out at 260 nM.

Consider `COC(=O)c1cnc(N2C3CC[C@H]2CC(OCc2c(-c4c(F)cccc4F)noc2C2CC2)C3)c(Br)c1` (stereo partly drawn) [Example 22-21], for which the EC50 amounted to 29 nM.

As for `Cc1nc(N2C3CC[C@H]2CC(OCc2c(-c4ccccc4C(F)(F)F)noc2C2CC2)C3)ccc1C(=O)O` (stereo partly drawn) [Example 30-45], the EC50 was determined as 18 nM.

In the case of `COC(=O)c1cc(C)c2nc(N3C4CC[C@H]3CC(OCc3c(-c5ccccc5C(F)(F)F)noc3C3CC3)C4)sc2c1` (stereo partly drawn) [Example 30-30], the EC50 came out at 120 nM.

`O=C(O)c1ccc(N2[C@@H]3CC[C@H]2C[C@H](OCc2c(-c4ccccc4C(F)(F)F)noc2C2CC2)C3)nc1` [Example 18-6B, 6-[(1R,5S)-3-({5-cyclopropyl-3-[2-(trifluoromethyl)phenyl]-1,2-oxazol-4-yl}methoxy)-8-azabicyclo[3.2.1]octan-8-yl]pyridine-3-carboxylic acid]: the EC50 amounted to 5 nM.

As to `CCOC(=O)c1ccc2nc(N3C4CC[C@H]3C[C@H](OCc3c(-c5ccccc5OC(F)F)noc3C3CC3)C4)sc2c1` [Example 6-2A], the EC50 was found to be 51 nM.

As to `CC12CCCC1C2c1noc(C2CC2)c1COC1CC2CC[C@@H](C1)N2c1nc2c(F)cc(C(=O)O)cc2s1` (stereo partly drawn) [Example 29-2], the EC50 amounted to 8 nM.

As for `COC(=O)c1cc(C)c2nc(N3C4CC[C@H]3CC(OCc3c(-c5ccccc5C)noc3C3CC3)C4)sc2c1` (stereo partly drawn) [Example 30-37], the EC50 is 140 nM.

Regarding `COC(=O)c1cc(N2C3CC[C@H]2CC(OCc2c(-c4c(F)cccc4F)noc2C2CC2)C3)nc(Cl)n1` (stereo partly drawn) [Example 22-19], the EC50 turned out to be 57 nM.

As to `Cn1nc(C(=O)O)c2ccc(N3C4CC[C@H]3CC(OCc3c(-c5ccccc5OC(F)(F)F)noc3C3CC3)C4)cc21` (stereo partly drawn) [Example 28-25], the EC50 is 1.1 nM.

Consider `O=C(O)c1ccc(N2[C@@H]3CC[C@H]2C[C@@H](OCc2c(-c4cccc(F)c4)noc2C2CC2)C3)nc1` [Example 30-9], for which the concentration giving a half-maximal response (EC50) worked out at 340 nM.

`O=C(O)c1ccc2nc(N3C4CC[C@H]3CC(OCc3c(-c5ccccc5OC(F)(F)F)noc3C3CC3)C4)ccc2c1` (stereo partly drawn) [Example 30-53]: the EC50 is 1 nM.

As for `CCOC(=O)c1ccc2nc(N3C4CC[C@H]3C[C@H](OCc3c(-c5ccccc5C(F)(F)F)noc3C3CC3)C4)sc2c1` [Example 6-1A], the EC50 is 63 nM.

As to `COC(=O)c1cccc(N2C3CC[C@H]2C[C@H](OCc2c(-c4ccccc4OC(F)(F)F)noc2C2CC2)C3)n1` [Example 19-7A], the EC50 stood at 10 nM.

Take `O=C(O)c1cnc2cc(N3C4CC[C@H]3CC(OCc3c(-c5ccccc5OC(F)(F)F)noc3C3CC3)C4)ccc2c1` (stereo partly drawn) [Example 28-3]: the EC50 amounted to 0.8 nM.

For `COC(=O)c1ccnc(N2C3CC[C@H]2C[C@H](OCc2c(-c4ccccc4OC(F)(F)F)noc2C2CC2)C3)n1` [Example 19-6A], the EC50 is 50 nM.
